Data taken from US5043179A, “Triol triester derivatives as low calorie fat mimetics” (Nabisco Brands, Inc., priority 1990, dated 1991).

What was measured:
[1] = in vitro digestibility screen using pancreatic lipase (TLC analysis); type: in vitro ADME, porcine; details: pig, two-hour incubation, 37° C., pH 7.1, TLC, read-out: hydrolyzed by pancreatic lipase
Experimental: This example outlines the procedure for screening the in vitro digestibility of the triester derivatives of this invention using pancreatic lipase.
(§1) 1. Buffer: A pH 7.1 phosphate buffer is prepared by dissolving 6.8 g. KH2 PO4 in 1 L. of millipore filtered water (to yield 0.05 M phosphate). Fifty mg. Ca(NO3)2 and 5.0 g. cholic acid (Na^+ salt, an ox bile isolate from Sigma) are added to give 0.3 mM Ca++ and 0.5% cholic acid in 0.05 M phosphate. The pH is adjusted to approximately 7.1 with solid NaOH. Several drops of Baker "Resi-analyzed " toluene are added to prevent bacterial growth during storage at 3°-5° C.
(§2) 2. Lipase: About 15 mg/mL commercial porcine pancreatic lipase from U.S. Biochemical Corporation is dissolved in buffer.
3. Substrates and Standards: A 1.0 mL volumetric flask is charged with an amount of lipid substrate (test substance or standard) calculated to give a concentration of 200 nanomoles per microliter in Baker "Resi-analyzed " toluene. (The proper concentration may be approximated by doubling the molecular weight of the lipid in question, dividing by 10, and diluting to the mark; this yields about 200 nanomoles per microliter.) This preparation affords the substrate to be used in the hydrolysis reactions. […]

[2] = caloric availability by in vivo animal feeding study (body weight gain); design: species or system Sprague-Dawley rats; details: rats, diet of 50% fort and 21% test compound, 14 days
Excerpt: This example illustrates how the triol triesters of this invention are screened for caloric availability by a carefully controlled in vivo animal feeding study.
An experimental relationship between total calories ingested and animal body weight gain is established by monitoring the body weight gain associated with consumption of a nutritionally balanced diet containing varying concentrations of a reference substance such as corn oil which has a known caloric availability. Correlations between total calories ingested and body weight gain are excellent (r=0.99).
Caloric availability of an unknown substance is evaluated by substituting a specific weight of the unknown substance for the reference substance and observing the body weight gain. The gain in body weight is equated to a total number of calories using the correlation previously established for the reference data. The estimated number of calories ingested are divided by the weight of unknown substance to give the apparent calories per gram for the unknown substance. Generally speaking, in these bioavailability studies, the degree of perianal pelt soiling correlates with reduced bioavailability.
The test animals are six-week-old male Sprague-Dawley rats obtained from the Portage, Michigan facility of the Charles River Laboratories, Inc. After acclimation for 15 days, the test duration is 14 days. […]

[3] = lipase assay as in Example 7, with super fluid chromatography to separate hydrolysis products; type: in vitro ADME, porcine; details: pig, pancreatic lipase, pH 7.1, one hour incubation, read-out: hydrolyzed by pancreatic lipase
Experimental: as §1, §2
(§3) 3. Substrates and Standards: A 1.0 mL volumetric flask is charged with an amount of lipid substrate (test substance or standard) calculated to give a concentration of 200 nanomoles per microliter in Baker "Resi-analyzed " toluene. (The proper concentration may be approximated by doubling the molecular weight of the lipid in question, dividing by 10, and diluting to the mark; this yields about 200 nanomoles per microliter.) This preparation affords the substrate to be used in the hydrolysis reactions.
(§4) In a 25 mL Erlenmeyer, emulsify 20 mL buffer and 40 microliters of substrate using an ultrasonic disrupter at a microtip maximum setting for approximately 10 seconds. […] Place in a 37° C. water bath and stir vigorously. After temperature equilibration, add 40 microliters of enzyme solution and start timing. […]

nonspecific lipase = details: pancreatic lipase inhibited by taurocholate; cited from earlier work
[4] = cited from earlier work
[5] = fed to rats; cited from earlier work
pancreatic lipase = experiment: lipase assay as in Example 7, with super fluid chromatography to separate hydrolysis products; type: in vitro ADME, porcine; details: one hour incubation
Experimental: as §1, §2, §3, §4

Row | SMILES | hydrolysis by nonspecific lipase (nonspecific lipase) | absorption in fat balance study [5] | also measured
1 | CCCCCCCC/C=C\CCCCCCCC(=O)OCCC(COC(=O)CCCCCCC/C=C\CCCCCCCC)OC(=O)CCCCCCC/C=C\CCCCCCCC (stereo not shown) [Example 4, 1,2,4-Butane trioleate] | – | – | metabolised at 2 h [1]: ~50%; caloric availability (kcal/gram yielded upon being metabolized) [2]: about 7.7 kcal/gram
2 | CCCCCCCCCCCCCC(=O)OCCCCC(COC(=O)CCCCCCCCCCCCC)OC(=O)CCCCCCCCCCCCC (stereo not shown) [Example 5, 1,2,6-hexane trimyristate] | – | – | metabolised at 1 h [3]: ~20%
3 | CCCCCCCC/C=C\CCCCCCCC(=O)OC[C@H](OC(=O)CCCCCCC/C=C\CCCCCCCC)[C@@H](COC(=O)CCCCCCC/C=C\CCCCCCCC)OC(=O)CCCCCCC/C=C\CCCCCCCC [erythritol tetraoleate] | stepwise hydrolysis | absorbability decreased | hydrolysis in vivo (free tagged erythritol in urine) ([4]; rats): hydrolyzed in vivo; rate of appearance of fatty acids in the lymph ([4]; thoracic duct cannulated rats): slower rate than glycerol trioleate
4 | CCCCCCCC/C=C\CCCCCCCC(=O)OCCOC(=O)CCCCCCC/C=C\CCCCCCCC [ethylene glycol dioleate] | hydrolyze | absorbed | –
5 | CCCCCCCC/C=C\CCCCCCCC(=O)OC [methyl oleate] | hydrolyze | absorbed | –
6 | CCCCCCCC/C=C\CCCCCCCC(=O)OCC(COC(=O)CCCCCCC/C=C\CCCCCCCC)(COC(=O)CCCCCCC/C=C\CCCCCCCC)COC(=O)CCCCCCC/C=C\CCCCCCCC [pentaerythritol tetraoleate] | – | absorbability decreased | –
7 | CCCCCCCC/C=C\CCCCCCCC(=O)OC[C@H](OC(=O)CCCCCCC/C=C\CCCCCCCC)[C@@H](OC(=O)CCCCCCC/C=C\CCCCCCCC)[C@H](OC(=O)CCCCCCC/C=C\CCCCCCCC)[C@@H](COC(=O)CCCCCCC/C=C\CCCCCCCC)OC(=O)CCCCCCC/C=C\CCCCCCCC [sorbitol hexaoleate] | – | not absorbed | –
8 | CCCCCCCC/C=C\CCCCCCCC(=O)OC[C@H]1O[C@@](COC(=O)CCCCCCC/C=C\CCCCCCCC)(O[C@H]2O[C@H](COC(=O)CCCCCCC/C=C\CCCCCCCC)[C@@H](OC(=O)CCCCCCC/C=C\CCCCCCCC)[C@H](OC(=O)CCCCCCC/C=C\CCCCCCCC)[C@H]2OC(=O)CCCCCCC/C=C\CCCCCCCC)[C@@H](OC(=O)CCCCCCC/C=C\CCCCCCCC)[C@@H]1OC(=O)CCCCCCC/C=C\CCCCCCCC [sucrose octaoleate] | – | not absorbed | –
9 | CCCCCCCCCCCCCC(=O)OCC(COC(=O)CCCCCCCCCCCCC)OC(=O)CCCCCCCCCCCCC [trimyristin] | – | – | hydrolysis by pancreatic lipase (in words) (pancreatic lipase): almost fully hydrolyzed
10 | CCCCCCCC/C=C\CCCCCCCC(=O)OCC(COC(=O)CCCCCCC/C=C\CCCCCCCC)OC(=O)CCCCCCC/C=C\CCCCCCCC [triolein] | hydrolyze | absorbed | metabolised at 2 h [1]: ~90%
11 | CCCCCCCC/C=C\CCCCCCCC(=O)OC[C@H](OC(=O)CCCCCCC/C=C\CCCCCCCC)[C@@H](OC(=O)CCCCCCC/C=C\CCCCCCCC)[C@@H](COC(=O)CCCCCCC/C=C\CCCCCCCC)OC(=O)CCCCCCC/C=C\CCCCCCCC [xylitol pentaoleate] | – | absorbability decreased | –
